Test results taken from patent US7595395B2, “Gabaergic agents to treat memory deficits” (priority 2005, dated 2009).
Like-named read-outs stand apart in the source and are kept apart here.

Columns and labels:
GABAA/α1 receptors = GABAA/α1 receptors (Homo sapiens, UniProt P14867+P18507); details: Huang et al. 2000; cited from earlier work
[1] = test system: alcohol preferring rats (P) and high alcohol drinking rats (HAD); details: cited from earlier work
[2] = target: T1, α2β3γ2 benzodiazepine receptor GABA(A) isoform (UniProt P18507+P47869); assay: Radioligand competition binding, α2β3γ2 BzR/GABA(A) isoform; parameters: species or system human and rat; details: means of two determinations, read-out: Ki α2
T1 sequence (P18507 1-475): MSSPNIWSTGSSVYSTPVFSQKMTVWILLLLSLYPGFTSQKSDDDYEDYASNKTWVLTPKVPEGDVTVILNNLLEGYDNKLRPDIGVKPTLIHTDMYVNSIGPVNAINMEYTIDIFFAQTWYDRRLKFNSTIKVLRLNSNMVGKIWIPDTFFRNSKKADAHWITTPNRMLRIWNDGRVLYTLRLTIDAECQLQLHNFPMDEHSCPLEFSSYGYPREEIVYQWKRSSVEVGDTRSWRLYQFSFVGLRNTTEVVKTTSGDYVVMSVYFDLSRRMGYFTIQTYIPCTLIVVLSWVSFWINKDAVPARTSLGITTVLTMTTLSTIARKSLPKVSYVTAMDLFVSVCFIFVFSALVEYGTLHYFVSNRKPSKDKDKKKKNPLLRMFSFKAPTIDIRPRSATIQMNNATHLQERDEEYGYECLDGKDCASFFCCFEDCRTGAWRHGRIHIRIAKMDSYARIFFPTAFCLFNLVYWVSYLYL
T1 sequence (P47869 1-451): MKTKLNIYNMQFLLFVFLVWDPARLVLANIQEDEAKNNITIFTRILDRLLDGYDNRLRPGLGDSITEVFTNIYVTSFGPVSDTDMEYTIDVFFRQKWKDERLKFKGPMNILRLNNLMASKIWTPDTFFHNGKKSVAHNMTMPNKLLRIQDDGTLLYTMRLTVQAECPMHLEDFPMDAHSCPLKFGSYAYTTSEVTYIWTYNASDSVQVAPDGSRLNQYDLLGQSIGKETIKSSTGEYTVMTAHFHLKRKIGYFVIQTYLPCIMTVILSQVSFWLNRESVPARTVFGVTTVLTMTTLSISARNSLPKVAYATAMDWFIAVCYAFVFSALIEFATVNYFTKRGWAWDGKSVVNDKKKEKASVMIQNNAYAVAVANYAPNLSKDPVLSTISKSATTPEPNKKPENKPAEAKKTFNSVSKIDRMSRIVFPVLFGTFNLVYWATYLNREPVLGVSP
Description: (§1) The affinity of all ligands at the 6 major recombinant GABAA/BzR subtypes was measured by competition for [^3H]Ro15-1788 binding to HEK-T cells expressing both human and rat GABAA/Bz receptors of composition α1β2γ2 (α1), α2β2γ2 (α2), α3β2γ2 (α3), α4β2γ2 (α4), α5β2γ2 (α5) and α6β2γ2 (α6). It is well known that the β2 and β3 subunits can be interchanged with no effect on Bz ligand affinity or efficacy. […] These studies are similar to those performed in the laboratory of Bryan Roth who has already expressed the receptors employing the work of Kucken et. al. and Gray et. al.
(§2) In brief, for membrane preparations, the cells were scraped on to the ice and diluted into 5 mL of phosphate buffered saline (pH=7.40) and cells pelleted by centrifugation for 5 min. at 4° C. The pellet was resuspended in 1 mL of 50 mM Tris-acetate buffer (pH 7.4) and centrifuged at 18,000 g for 20 min. […] Each pellet were diluted to 6 mL and then 100 μL of membranes were incubated with approximately 1 nM final concentration of [^3H]Ro 15-1788 in a total volume of 250 μL together with serial dilutions of test compound for 90 min. on ice. The membranes were harvested in polyethyleneimine-pretreated Whatman GF/C filters and after drying and addition of scintillation cocktail, counted in a scintillation counter. The cpm retained on the filters was plotted against log concentration (M) and fitted to one site competition equation to obtain the Ki using Graphpad Prizm (V4.0) using the Cheng-Prusoff approximation.

[3] = target: T2, α3β3γ2 benzodiazepine receptor GABA(A) isoform (UniProt P18507+P34903); assay: Radioligand competition binding, α3β3γ2 BzR/GABA(A) isoform; parameters: species or system human and rat; details: means of two determinations, read-out: Ki α3
T2 sequence (P18507 1-475): T1 sequence (P18507 1-475)
T2 sequence (P34903 1-492): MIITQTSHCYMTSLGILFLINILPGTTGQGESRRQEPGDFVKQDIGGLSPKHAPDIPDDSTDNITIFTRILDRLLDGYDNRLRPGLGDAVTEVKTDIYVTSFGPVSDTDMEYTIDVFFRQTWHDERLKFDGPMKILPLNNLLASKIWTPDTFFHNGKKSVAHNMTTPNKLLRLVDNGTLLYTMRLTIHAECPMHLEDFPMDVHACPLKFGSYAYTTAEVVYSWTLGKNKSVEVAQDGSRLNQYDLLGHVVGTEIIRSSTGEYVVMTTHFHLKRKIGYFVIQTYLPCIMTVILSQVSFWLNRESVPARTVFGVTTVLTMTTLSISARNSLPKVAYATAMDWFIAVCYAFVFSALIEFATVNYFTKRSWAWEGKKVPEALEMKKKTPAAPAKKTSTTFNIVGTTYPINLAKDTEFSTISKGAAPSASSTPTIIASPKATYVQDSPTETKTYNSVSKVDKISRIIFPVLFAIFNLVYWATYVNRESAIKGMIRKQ
Description: as §1, §2

[4] = target: α6β3γ2 benzodiazepine receptor GABA(A) isoform (UniProt P18507+Q16445); assay: Radioligand competition binding, α6β3γ2 BzR/GABA(A) isoform; parameters: species or system human and rat; details: means of two determinations, read-out: Ki α6
Description: as §1, §2

[5] = target: T3, α1β3γ2 benzodiazepine receptor GABA(A) isoform (UniProt P14867+P18507); assay: Radioligand competition binding, α1β3γ2 BzR/GABA(A) isoform; parameters: Ki α1; means of two determinations; Ki α1; α1; species or system human and rat; details: means of two determinations, read-out: Ki α1
T3 sequence (P14867 1-456): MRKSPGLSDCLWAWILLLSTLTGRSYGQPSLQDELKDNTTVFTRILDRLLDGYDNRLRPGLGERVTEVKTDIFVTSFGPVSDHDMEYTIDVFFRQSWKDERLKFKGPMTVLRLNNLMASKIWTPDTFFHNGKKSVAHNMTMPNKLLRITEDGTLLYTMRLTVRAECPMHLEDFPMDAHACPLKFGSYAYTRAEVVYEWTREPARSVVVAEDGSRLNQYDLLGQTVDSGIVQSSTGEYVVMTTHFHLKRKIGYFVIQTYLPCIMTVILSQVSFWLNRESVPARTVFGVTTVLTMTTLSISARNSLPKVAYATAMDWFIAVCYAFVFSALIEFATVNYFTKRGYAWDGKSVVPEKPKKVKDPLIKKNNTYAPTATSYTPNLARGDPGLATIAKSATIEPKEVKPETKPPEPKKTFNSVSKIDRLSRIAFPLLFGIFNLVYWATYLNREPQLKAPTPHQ
T3 sequence (P18507 1-475): T1 sequence (P18507 1-475)
Description: as §1, §2

[6] = target: T4, α5β3γ2 benzodiazepine receptor GABA(A) isoform (UniProt P18507+P31644); assay: Radioligand competition binding, α5β3γ2 BzR/GABA(A) isoform; parameters: Ki α5; means of two determinations; Ki α5; α5; other: text; species or system human and rat
T4 sequence (P18507 1-475): T1 sequence (P18507 1-475)
T4 sequence (P31644 1-462): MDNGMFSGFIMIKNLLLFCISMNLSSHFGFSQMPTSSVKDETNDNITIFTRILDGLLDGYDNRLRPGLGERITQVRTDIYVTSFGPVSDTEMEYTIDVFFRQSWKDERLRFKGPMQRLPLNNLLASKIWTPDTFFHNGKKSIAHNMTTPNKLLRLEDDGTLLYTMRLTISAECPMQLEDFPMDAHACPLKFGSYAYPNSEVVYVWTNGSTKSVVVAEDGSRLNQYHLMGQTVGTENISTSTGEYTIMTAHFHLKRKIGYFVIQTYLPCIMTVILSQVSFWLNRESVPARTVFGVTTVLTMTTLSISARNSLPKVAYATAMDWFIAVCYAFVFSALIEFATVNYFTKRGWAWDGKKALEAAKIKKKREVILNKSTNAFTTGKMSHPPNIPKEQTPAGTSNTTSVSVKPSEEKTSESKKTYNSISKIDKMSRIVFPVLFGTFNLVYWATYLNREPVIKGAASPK

[7] = read-out: Ki α5; Table I; means of two determinations
[8] = Table 2; means of two determinations; read-out: Ki α5
[9] = read-out: Ki α5; Table 2; means of two determinations

Sequence of GABAA/α1 receptors (P28472 26-473 partner, one chain of several): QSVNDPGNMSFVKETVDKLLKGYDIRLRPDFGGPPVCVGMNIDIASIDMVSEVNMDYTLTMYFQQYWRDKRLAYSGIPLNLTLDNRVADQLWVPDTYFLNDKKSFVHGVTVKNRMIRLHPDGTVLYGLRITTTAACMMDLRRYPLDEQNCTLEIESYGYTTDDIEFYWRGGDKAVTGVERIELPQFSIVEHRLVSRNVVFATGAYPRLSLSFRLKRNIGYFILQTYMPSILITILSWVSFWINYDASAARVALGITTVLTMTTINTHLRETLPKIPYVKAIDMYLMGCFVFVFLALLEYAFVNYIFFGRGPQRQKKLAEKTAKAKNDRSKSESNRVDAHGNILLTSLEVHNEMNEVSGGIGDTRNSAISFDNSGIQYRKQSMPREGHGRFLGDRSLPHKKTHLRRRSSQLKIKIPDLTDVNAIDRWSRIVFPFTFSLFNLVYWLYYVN

Compound	Ki ([2]; Table I)	Ki ([3]; Table I)	Ki ([4]; Table I)	Ki ([5]; Table I)	Ki [6, 7]	Ki ([2]; Table 2)	Ki ([3]; Table 2)	Ki ([4]; Table 2)	Ki ([5]; Table 2)	other results
CC(C)(C)OC(=O)c1cc2c(cn1)[nH]c1ccccc12 [BCCt, β-carboline-3-carboxylate-tbutyl ester]										selectivity for α1 over other BzR subtypes (GABAA/α1 receptors): 20 fold; alcohol self administration (in words) ([1]; P and HAD rats, June et al. 2003, Foster et al. 2004): potently reduced alcohol self administration; anxiolytic activity (in words) ([1]; P and HAD rats): exhibits anxiolytic activity; sedative-hypnotic effects of alcohol (in words) ([1]; P rats and HAD rats): antagonized the sedative-hypnotic effects of alcohol
CCOCc1ncn2c1CN(C)C(=O)c1cc(Cl)ccc1-2 [Ligand 12c]	> 300 nM	> 300 nM	> 300 nM	> 300 nM	82.7 nM					
C#CC#Cc1ccc2c(c1)C(=O)N1CCC[C@H]1c1c(C(=O)OCC)ncn1-2 [Ligand 14]					64 nM					
C#Cc1ccc2c(c1)C(=O)N1CC[C@@H]1c1c(-c3nc(C)no3)ncn1-2 [RY-I-29]	> 1000 nM	> 1000 nM	> 1000 nM	> 1000 nM		> 1000 nM	> 1000 nM	> 1000 nM	> 1000 nM	Ki [6, 8]: 157 nM; Ki ([6]; Table I; means of two determinations; read-out: Ki α5): 157 nM
CCOC(=O)c1ncoc1-c1ncn2c1[C@@H]1CCN1C(=O)c1cc(Br)ccc1-2 [RY062]						> 1000 nM	> 500 nM	> 2000 nM	> 1000 nM	Ki [6, 8]: 172 nM
C#Cc1ccc2c(c1)C(=O)N1CC[C@H]1c1c(-c3ocnc3C(=O)OCC)ncn1-2 [RY069]						622 nM	506 nM	> 1000 nM	692 nM	Ki [6, 9]: 19 nM
CN1Cc2c(CCl)ncn2-c2ccc(Cl)cc2C1=O [Ligand 12b]	> 300 nM	> 300 nM	> 300 nM	> 300 nM	28.5 nM					
CCOC(=O)c1ncoc1-c1ncn2c1[C@@H]1CCN1C(=O)c1cc(C#C[Si](C)(C)C)ccc1-2 [RY068]						877 nM	496 nM	> 1000 nM	> 500 nM	Ki [6, 9]: 37 nM
